# What was measured:
# House Flies = test: Example 17: house fly knockdown and mortality, bifenthrin and clothianidin; assay type: in vivo
# Source text: (§1) The following examples further illustrate the present invention, but, of course, should not be construed as in any way limiting its scope. The examples set forth certain biological data illustrating the efficacy of the compositions of the present invention in controlling general household pests. Each example embodies a separate test wherein the pests were randomly selected from a population at a random age. As a result, from example to example, the ages of the pests can be very different. This age difference potentially translates to different baselines for each example. Therefore, data should only be compared within the example and not from example to example due to the differences in age of the pests from example to example. Unless otherwise indicated, all parts, percentages, and the like are by weight. The spray chamber used in the examples was approximately 76 inches tall, 73 inches long and 31 inches deep with an adjustable shelf (approximately 22 inches deep) and a movable spray nozzle. The spray chambers were calibrated to deliver a volume of approximately 1 gallon of liquid per 1000 square feet of area at about 14 pounds per square inch of pressure. A DeVilbiss hand held sprayer (Atomizer model 152) manufactured by DeVilbiss located in Glendale Heights, Ill. was used in testing house flies and mosquitoes. The DeVilbiss was used to apply approximately 3-5 milliliters of product at about 10 pounds per square inch.
# The compositions of the present invention were tested for house fly activity in the following manner:
# (§2) Test compositions made up of TALSTARONE® MULTI-INSECTICIDE and a 16% a.i. water dispersible granular of clothianidin in distilled water were prepared that provided appropriate rates of application of combinations of bifenthrin and clothianidin, as well as bifenthrin and clothianidin alone.
# A DeVilbiss hand held sprayer was used to deliver the treatment solution at the desired volume and pressure. The house flies to be treated were collected and placed in screened 16 oz paper cups. The hand held sprayer was activated and the test compound was applied to each paper cup interior. House fly knockdown and mortality were measured.
# Red Imported Fire Ant = test: Example 6: red imported fire ant knockdown and mortality, bifenthrin and imidacloprid (higher rates); assay type: in vivo, Solenopsis invicta
# Source text: as §1
# The compositions of the present invention were tested for red imported fire ant activity in the following manner:
# (§3) Test compositions made up of TALSTARONE® MULTI-INSECTICIDE and a wettable powder of imidacloprid (MERIT) in distilled water were prepared that provided appropriate rates of application of combinations of bifenthrin and imidacloprid, as well as bifenthrin and imidacloprid alone.
# The spray chamber was then calibrated to deliver the treatment solution at the desired volume and pressure over the desired area on the chamber shelf. Spray chamber shelf height was adjusted to approximately 18 inches from the spray tip. The shelf was then covered with aluminum foil and the center of the shelf from front-to-back and end-to-end was determined. The red imported file ants to be treated were collected and placed in screened 16 oz paper cups. The paper cups were placed onto the aluminum foil on the spray chamber shelf. The sprayer was activated and the test compound was applied to each paper cup interior. Red imported fire ant knockdown and mortality were measured.
# German cockroach [1] = test: Example 1: German cockroach mortality, spray of bifenthrin and imidacloprid combinations; assay type: in vivo
# Source text: as §1
# (§4) The compositions of the present invention were tested for German cockroach activity in the following manner:
# as §3
# (§5) The spray chamber was then calibrated to deliver the treatment solution at the desired volume and pressure over the desired area on the chamber shelf. Spray chamber shelf height was adjusted to approximately 18 inches from the spray tip. The shelf was then covered with aluminum foil and the center of the shelf from front-to-back and end-to-end was determined. A desired number of 4.0″ sieve circles were marked on the aluminum foil with a permanent marker. The inside of a desired number of PVC rings were coated with a petroleum jelly/mineral oil mixture (1:2 ratio). The PVC rings were place on the sieve circles. 10 male German cockroaches were placed inside each PVC ring. The sprayer was activated and the test compound was applied to each PVC ring interior. German cockroach mortality was measured.
# German cockroach [2] = test: Example 13: German cockroach mortality, bifenthrin and clothianidin; assay type: in vivo
# Source text: as §1, §4, §2, §5
# [3] = rate of appln. 10 PPM (0.001% by weight)
# [4] = rate of appln. 50 PPM (0.005% by weight)
compound,measurement,setting,value
"Cc1c(COC(=O)[C@@H]2[C@H](/C=C(\Cl)C(F)(F)F)C2(C)C)cccc1-c1ccccc1 (racemic) [A, 2-methylbiphenyl-3-ylmethyl (Z)-(1RS)-cis-3-(2-chloro-3,3,3-trifluoroprop-1-enyl)-2,2-dimethylcyclopropanecarboxylate]",Knockdown Rate @ 15 minute,House Flies; [3],0%
same,Knockdown Rate @ 30 minute,House Flies; [3],0%
same,Knockdown Rate @ 45 minutes,House Flies; [3],0%
same,Knockdown Rate @ 60 minutes,House Flies; [3],0%
same,Knockdown Rate @ 120 minutes,House Flies; [3],3%
same,Knockdown Rate @ 180 minutes,House Flies; [3],3%
same,Knockdown Rate @ 4 hours,House Flies; [3],3%
same,Mortality Rate @ 1 day,House Flies; [3],3%
same,Knockdown Rate @ 15 minute,House Flies; [4],3%
same,Knockdown Rate @ 30 minute,House Flies; [4],55%
same,Knockdown Rate @ 45 minutes,House Flies; [4],66%
same,Knockdown Rate @ 60 minutes,House Flies; [4],68%
same,Knockdown Rate @ 120 minutes,House Flies; [4],74%
same,Knockdown Rate @ 180 minutes,House Flies; [4],74%
same,Knockdown Rate @ 4 hours,House Flies; [4],76%
same,Mortality Rate @ 1 day,House Flies; [4],79%
same,Knockdown Rate @ 5 minute,"Red Imported Fire Ant; 200 PPM, 0.02% by weight",0%
same,Knockdown Rate @ 10 minute,"Red Imported Fire Ant; 200 PPM, 0.02% by weight",0%
same,Knockdown Rate @ 15 minute,"Red Imported Fire Ant; 200 PPM, 0.02% by weight",70%
same,Knockdown Rate @ 30 minutes,"Red Imported Fire Ant; 200 PPM, 0.02% by weight",88%
same,Mortality @ 120 minutes,"Red Imported Fire Ant; 200 PPM, 0.02% by weight",100%
same,Mortality Rate @ 60 minutes,"Red Imported Fire Ant; 200 PPM, 0.02% by weight",100%
same,Mortality Rate @ 4 hours,"Red Imported Fire Ant; 200 PPM, 0.02% by weight",100%
same,Knockdown Rate @ 5 minute,"Red Imported Fire Ant; 600 PPM, 0.06% by weight",0%
same,Knockdown Rate @ 10 minute,"Red Imported Fire Ant; 600 PPM, 0.06% by weight",40%
same,Knockdown Rate @ 15 minute,"Red Imported Fire Ant; 600 PPM, 0.06% by weight",88%
same,Knockdown Rate @ 30 minutes,"Red Imported Fire Ant; 600 PPM, 0.06% by weight",100%
same,Mortality @ 120 minutes,"Red Imported Fire Ant; 600 PPM, 0.06% by weight",100%
same,Mortality Rate @ 60 minutes,"Red Imported Fire Ant; 600 PPM, 0.06% by weight",100%
same,Mortality Rate @ 4 hours,"Red Imported Fire Ant; 600 PPM, 0.06% by weight",100%
same,Mortality Rate @ 60 minutes,"German cockroach [1]; 10 PPM, 0.001% by weight",3%
same,Mortality Rate @ 120 minutes,"German cockroach [1]; 10 PPM, 0.001% by weight",33%
same,Mortality Rate @ 1 day,"German cockroach [1]; 10 PPM, 0.001% by weight",33%
same,Mortality Rate @ 2 days,"German cockroach [1]; 10 PPM, 0.001% by weight",60%
same,Mortality Rate @ 60 minutes,"German cockroach [1]; 50 PPM, 0.005% by weight",30%
same,Mortality Rate @ 120 minutes,"German cockroach [1]; 50 PPM, 0.005% by weight",48%
same,Mortality Rate @ 1 day,"German cockroach [1]; 50 PPM, 0.005% by weight",58%
same,Mortality Rate @ 2 days,"German cockroach [1]; 50 PPM, 0.005% by weight",100%
same,Mortality Rate @ 60 minutes,German cockroach [2]; [3],8%
same,Mortality Rate @ 120 minutes,German cockroach [2]; [3],33%
same,Mortality Rate @ 1 day,German cockroach [2]; [3],35%
same,Mortality Rate @ 2 days,German cockroach [2]; [3],60%
same,Mortality Rate @ 4 days,German cockroach [2]; [3],100%
same,Mortality Rate @ 60 minutes,German cockroach [2]; [4],15%
same,Mortality Rate @ 120 minutes,German cockroach [2]; [4],48%
same,Mortality Rate @ 1 day,German cockroach [2]; [4],58%
same,Mortality Rate @ 2 days,German cockroach [2]; [4],100%
same,Mortality Rate @ 4 days,German cockroach [2]; [4],100%
